The structures appear in SMILES notation. ≈ marks a conversion by molar mass, not a printed value. Like-named read-outs stand apart in the source and are kept apart here.

Consider 3 compounds from US5364879A, “Medical uses of trioxolane and diperoxide compounds” (Cliveden Ltd., priority 1994, dated 1994).

Details of data set [1]: species or system New Zealand White rabbits. The following applies: rabbit, in vivo.
A short description of another data set: in vivo. To be noted: mouse.
Details of data set [2]: species or system New Zealand White rabbits. The following applies: rabbit, in vivo. The source holds these as a separate data set.
A further data set concerns Leishmania major. The experiment in a line: Treatment of mice infected with Leishmania major. Type of data set: in vivo, Leishmania major (balb/c mice).
In another data set the test system is E. coli. The experiment in a line: microbe, parasite or virus in culture. Type of data set: cell-based. The following applies: Escherichia coli.
Data set [3] concerns Candida. The experiment in a line: MIC in agar dilution. Type of data set: cell-based, Candida spp. To be noted: N = 2.
Another data set has as its system Leishmania donova. Further details: species or system Leishmania donova (Balb/c mice). The following applies: mouse, in vivo.
The test system of the next data set is Shigella. The data set can be described thus: microbe, parasite or virus in culture. Type of data set: cell-based, Shigella spp.
In a further data set the test system is S. epidermidis. The data set can be described thus: MIC by agar diffusion method. In kind it is cell-based. To be noted: Staphylococcus epidermidis.
For data set [4], the system named is microorganisms which cause common infections. Type of data set: cell-based.
The next data set concerns Tri. canis. The data set can be described thus: microbe, parasite or virus in culture. The following applies: Trichophyton. Type of data set: cell-based, Trichophyton canis.
For data set [5] the following is noted: mouse, in vivo, ip.
Another data set deals with Cryptococcus. The experiment in a line: MIC by agar diffusion method. Type of data set: cell-based, Cryptoccus spp. The following applies: N = 1.
Data set [6] relates to S. aureus. The experiment in a line: microbe, parasite or virus in culture. In kind it is cell-based. The following applies: Staphylococcus aureus, read-out: lowest concentration inhibiting at least one isolate.
Another data set concerns Tri. violaceum. The data set can be described thus: microbe, parasite or virus in culture. Type of data set: cell-based, Trichophyton violaceurn. To be noted: Trichophyton violaceum.
The next data set deals with lymphocytes. The data set can be described thus: Immunomodulatory activity, bone marrow examination. In kind it is in vivo. To be noted: Balb/c mice.
Data set [7] concerns S. aureus. The experiment in a line: microbe, parasite or virus in culture. In kind it is cell-based. The following applies: Staphylococcus aureus.
Data set [8] has as its system EPEC/ETEC. The experiment in a line: MIC in broth. Type of data set: cell-based, Enteropathogenic/enterotoxigenic Escherichia coli. The following applies: Escherichia coli, N = 5.
Data set [9] relates to Candida. The experiment in a line: MIC in broth. Type of data set: cell-based, Candida spp. The following applies: N = 2.
Another data set relates to C. albicans. The experiment in a line: MIC by agar diffusion method. In kind it is cell-based. The following applies: Candida albicans, N = 5.
The subject of another data set is Pseudomonas. The experiment in a line: microbe, parasite or virus in culture. Type of data set: cell-based, Pseudomonas spp.
The test system of data set [10] is Candida. The data set can be described thus: microbe, parasite or virus in culture. Type of data set: cell-based, Candida spp.
In data set [11] the test system is Myeloma cell line (x63 balb/c line). The data set can be described thus: Effect on myeloma cell line. Type of data set: cell-based.
A further data set deals with Salmonella. The experiment in a line: microbe, parasite or virus in culture. In kind it is cell-based, Salmonella spp.
Data set [12] has as its system EPEC/ETEC. The experiment in a line: MIC in agar dilution. The following applies: Escherichia coli, N = 5. In kind it is cell-based, Enteropathogenic/enterotoxigenic Escherichia coli.
The test system of another data set is human spermatozoa. The experiment in a line: Effect on spermatozoa. Type of data set: cell-based.
In a further data set the test system is Archromobacter. The data set can be described thus: MIC by agar diffusion method. Type of data set: cell-based. The following applies: Achromobacter, N = 1.
The test system of a further data set is Penicillium. The experiment in a line: MIC by agar diffusion method. To be noted: N = 1. In kind it is cell-based, Penicillium spp.
The next data set deals with N. gonorrhoea. The data set can be described thus: MIC by agar diffusion method. The following applies: Neisseria. Type of data set: cell-based, Neisseria gonorrhoea.
Another data set relates to Ph. verrucose. The data set can be described thus: microbe, parasite or virus in culture. In kind it is cell-based, Phialophora verrucose. To be noted: Phialophora.
The test system of a further data set is Klebisella. The experiment in a line: microbe, parasite or virus in culture. Type of data set: cell-based, Klebsiella spp. The following applies: Klebsiella.

On to `CC1(C)OOC(CCC(C)(O)C2OCOO2)O1` (centres unmarked) [linalool trioxolane], for which the “Primary Irritation Index (PII)” value in [1] was found to be 1.0. Moreover, the LD50 in the data set “in vivo” was roughly 3000 mg/kg. For the same compound, the ocular irritation result in [2] is given as “non-irritant”.

As to `O.O.O.O.O.O.O.O.O.O=C([O-])[C@@H]1[O][Sb](=[O])([O][Sb]2(=[O])[O][C@H]([C@H](O)CO)[C@H](O)[C@H](C(=O)[O-])[O]2)[O][C@H]([C@H](O)CO)[C@@H]1O.[Na+].[Na+].[Na+]` (some centres unmarked) [Pentostam, reference compound], in the data set with Leishmania major (mouse, in vivo, ip), the “lesions, Day 14” value was “Large lesions”; the “number dead, Day 14” value came out at 1; the “palate involvement, Day 14” value is on record as “involvement”.

With `CCC1OOC(CCO)O1` (stereo not drawn) [trioxolane derivative of cis 3-hexene-1-ol], the MIC against E. coli was 120 mg/L (≈ 810 µM); against Candida [3] it was 31 mg/L (≈ 209 µM); in the data set with S. epidermidis (read-out: lowest concentration inhibiting at least one isolate) it was 31 mg/L (≈ 209 µM); in the data set on S. epidermidis (agar diffusion, N = 14, read-out: MIC), 25 mg/L (≈ 169 µM); against Tri. canis it was 150 mg/L (≈ 1010 µM); in the data set with Cryptococcus, 15 mg/L (≈ 101 µM). Also, the MIC with S. aureus [6] was found to be 31 mg/L (≈ 209 µM); in the data set on Tri. violaceum, 150 mg/L (≈ 1010 µM); against EPEC/ETEC [8] it was 620 mg/L (≈ 4180 µM); against Candida [9] it was 310 mg/L (≈ 2090 µM); in the data set with C. albicans, 31 mg/L (≈ 209 µM); against EPEC/ETEC [12], 31 mg/L (≈ 209 µM). The MIC against Archromobacter was 60 mg/L (≈ 405 µM); in the data set with Penicillium it was 310 mg/L (≈ 2090 µM); with N. gonorrhoea (N = 49, number in parentheses, read-out: lowest concentration inhibiting at least one isolate), 1.9 mg/L (≈ 12.8 µM); with N. gonorrhoea (N = 49, read-out: MIC), 3.5 mg/L (≈ 23.6 µM); in the data set on Ph. verrucose it was 150 mg/L (≈ 1010 µM); with Klebisella, 7 mg/L (≈ 47.2 µM). In addition, the “clearing parasites from the viscera compared with Pentostam” value with Leishmania donova is reported as “perform better than Pentostam”. The MBC came out at 1250 mg/L (≈ 8440 µM) with Shigella; 1250 mg/L (≈ 8440 µM) in the data set on S. aureus [7]; 1250 mg/L (≈ 8440 µM) in the data set with Pseudomonas; 1250 mg/L (≈ 8440 µM) with Candida [10]; 2500 mg/L (≈ 16900 µM) against Salmonella. For the same compound, the “activity compared with Geraniol trioxolane” value in [4] is “more active than Geraniol trioxolane”. Moreover, in [4], the “activity compared with conventional drugs” value was “more active than conventional drugs”. Also, in [4], the “direct bioactivity, agar vs broth” value is on record as “better in agar than in broth methods”. The “effect of water on direct bioactivity” value in data set [4] was “significantly reduces”. Further, the “relationship with resistance and sensitivity to conventional antibiotics” value in data set [4] is reported as “no relationship”. Also, in data set [4], the “sensitivity of all the microorganisms tested” value is on record as “uniformly sensitive”. This compound also gave a minimum lethal dose in [5] of 3000 mg/kg. Besides, the “tolerability in studies on LD50” value in data set [5] was “highly tolerated”. Further, the “lesions, Day 0” value in the data set with Leishmania major (IP, n = 15/group) is given as “Large lesions”; in the data set with Leishmania major (topical, n = 15/group) it was “Large lesions”. Besides, the “lesions, Day 14” value in the data set on Leishmania major (IP, n = 15/group) is reported as “Lesions scabbed”. Further, in the data set with Leishmania major (IP, n = 15/group), the “number dead, Day 14” value was determined as 2. Further, the “number with palate involvement, Day 14” value with Leishmania major (IP, n = 15/group) came out at 2. In the data set with Leishmania major (topical, n = 15/group), the “general condition, Day 14” value is listed as “Animals healthy and”. Also, the “new clones of lymphocytes in bone marrow vs mice without any drug” value in the data set on lymphocytes was “increase in new clones of lymphocytes”. Also, the “time within which myeloma cell line was killed” value in data set [11] is no more than 48 h. For the same compound, the “time within which human spermatozoa were killed” value in the data set with human spermatozoa is no more than 1 min.
